Test system: NCI-H1618 multicellular tumor spheroid viability
Assay: Anticancer human tumor NCI-H1618 cell line growth inhibition;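 note: spheroids exposed to agents for 7 days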
Conditions: for IC50: curve of first compound; for viability, T/C: stronger effect = lower value
Summary of the method: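 Complex tumor spheroids combined malignant cells with endothelial cells and mesenchymal stem cells. DNA-damaging drugs and DNA repair inhibitors were tested alone and in combination, at half-log dilutions down from clinical Cmax (top 10 microM if Cmax unknown), 0.25% DMSO final.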

[1] = second compound 0.003 µM, first compound 0.0316 µM
[2] = second compound 0.003 µM, first compound 0.1 µM
[3] = second compound 0.003 µM, first compound 0.316 µM
[4] = second compound 0.003 µM, first compound 1 µM
[5] = second compound 0.003 µM, first compound 3.16 µM
[6] = second compound 0.003 µM, first compound 10 µM
[7] = second compound 0.00949 µM, first compound 0.0316 µM
[8] = second compound 0.00949 µM, first compound 0.1 µM
[9] = second compound 0.00949 µM, first compound 0.316 µM
[10] = second compound 0.00949 µM, first compound 1 µM
[11] = second compound 0.00949 µM, first compound 3.16 µM
[12] = second compound 0.00949 µM, first compound 10 µM
[13] = second compound 0.03 µM, first compound 0.0316 µM
[14] = second compound 0.03 µM, first compound 0.1 µM
[15] = second compound 0.03 µM, first compound 0.316 µM
[16] = second compound 0.03 µM, first compound 1 µM
[17] = second compound 0.03 µM, first compound 3.16 µM
[18] = second compound 0.03 µM, first compound 10 µM
[19] = second compound 0.0949 µM, first compound 0.0316 µM
[20] = second compound 0.0949 µM, first compound 0.1 µM
[21] = second compound 0.0949 µM, first compound 0.316 µM
[22] = second compound 0.0949 µM, first compound 1 µM
[23] = second compound 0.0949 µM, first compound 3.16 µM
[24] = second compound 0.0949 µM, first compound 10 µM
[25] = second compound 0.3 µM, first compound 0.0316 µM
[26] = second compound 0.3 µM, first compound 0.1 µM
[27] = second compound 0.3 µM, first compound 0.316 µM
[28] = second compound 0.3 µM, first compound 1 µM
[29] = second compound 0.3 µM, first compound 3.16 µM
[30] = second compound 0.3 µM, first compound 10 µM

Compound | IC50 (second compound 0.003 µM) [nM] | IC50 (second compound 0.00949 µM) [nM] | IC50 (second compound 0.03 µM) [nM] | IC50 (second compound 0.0949 µM) [nM] | IC50 (second compound 0.3 µM) [nM] | viability, T/C [1] [%] | viability, T/C [2] [%] | viability, T/C [3] [%] | viability, T/C [4] [%] | viability, T/C [5] [%] | viability, T/C [6] [%] | viability, T/C [7] [%] | viability, T/C [8] [%] | viability, T/C [9] [%] | viability, T/C [10] [%] | viability, T/C [11] [%] | viability, T/C [12] [%] | viability, T/C [13] [%] | viability, T/C [14] [%] | viability, T/C [15] [%] | also measured
CC(C)n1c(=O)n(C)c2cnc3cc(F)c(-c4ccc(OCCCN5CCCCC5)nc4)cc3c21 + CC[C@@]1(O)C(=O)OCc2c1cc1n(c2=O)Cc2cc3c(CN(C)C)c(O)ccc3nc2-1 | > 10000 | < 31.6 | < 31.6 | < 31.6 | < 31.6 | 56.8 | 51.4 | 51.9 | 66.7 | 72.7 | 38.1 | 7.93 | 4.31 | 8.14 | 10.5 | 12.8 | 14.4 | 4.99 | 4.95 | 4.02 | viability, T/C [16]: 2.3%; viability, T/C [17]: 2.79%; viability, T/C [18]: 1.82%; viability, T/C [19]: 4.98%; viability, T/C [20]: 3.54%; viability, T/C [21]: 8.33%; viability, T/C [22]: 4.32%; viability, T/C [23]: 7.17%; viability, T/C [24]: 4.95%; viability, T/C [25]: 4.62%; viability, T/C [26]: 4.88%; viability, T/C [27]: 4.27%; viability, T/C [28]: 4.09%; viability, T/C [29]: 5.96%; viability, T/C [30]: 6.01%
COc1ccc([C@@H](O)c2cc(-c3ncnc4cc(N5CCOCC5)ccc34)c(F)cc2Cl)nn1 + CC[C@@]1(O)C(=O)OCc2c1cc1n(c2=O)Cc2cc3c(CN(C)C)c(O)ccc3nc2-1 | 2580 | < 31.6 | < 31.6 | < 31.6 | < 31.6 | 98.9 | 71.7 | 95.3 | 77 | 44.2 | 14.9 | 42.3 | 27.2 | 54 | 48.5 | 36 | 11.8 | 2.44 | 3.37 | 3.22 | viability, T/C [16]: 2.13%; viability, T/C [17]: 2.99%; viability, T/C [18]: 0.99%; viability, T/C [19]: 4.05%; viability, T/C [20]: 2.6%; viability, T/C [21]: 6.24%; viability, T/C [22]: 2.56%; viability, T/C [23]: 1.11%; viability, T/C [24]: 1.58%; viability, T/C [25]: 2.38%; viability, T/C [26]: 2.02%; viability, T/C [27]: 2.24%; viability, T/C [28]: 2.64%; viability, T/C [29]: 1.97%; viability, T/C [30]: 0.5%

Source: PubChem BioAssay AID1845206 (Molecular Pharmacology Branch, DTP, NCI, 2023)
